This is an account of results in patent US20250144179A1, “PEPTIDE HORMONE TO PREVENT OR TREAT VASOSPASM, BRAIN INJURY OR CEREBRAL EDEMA” (UNIVERSITY OF FLORIDA RESEARCH FOUNDATION, INCORPORATED, priority 2022, published 2025).

“Also recorded” adds a separate entry of the source.

Common to all, as to format: in vivo, mouse
Data set [1] relates to ZO-1. Briefly: Western blot of ZO-1 in brain after SAH. Conditions: wild-type mice, adropin 450 nmol/kg i.p. vs vehicle. The procedure:
(§1) Synthetic adropin^34-76 peptide was supplied from Bachem (Bubendorf, Switzerland) and diluted in 0.1% BSA in saline. 0.1% BSA in saline was used as vehicle control for all experiments. Adropin (450 nmol/kg) or an equivalent volume of vehicle was delivered via intraperitoneal injection 15 minutes post-SAH. For experiments ending at 24 hours post-SAH, an identical dose of adropin/vehicle was given again 12 hours later. For experiments ending 7 days post-SAH, adropin/vehicle was given again on days 1, 3 & 5 post-SAH. In the aneurysm rupture model, adropin was given at a dose of 450 nmol/kg starting 3 days before aneurysm induction (elastase injection). Adropin was given every other day until sacrifice
(§2) SAH was modeled using the anterior circulation single autologous blood injection method^25,33 with minor adjustments. Mice were anesthetized with ketamine (100 mg/kg) and xylazine (10 mg/kg) before removing hair from scalp and cleaning with serial betadine—saline washes. The tail was also prepped from the base extending 1 cm distally. Mice were then fixed into a stereotaxic frame and body temperature maintained at 37° C. The scalp was incised along the sagittal suture from bregma to the nasal bone. […]
At 24 hours or 7 days post-SAH, mice were deeply anesthetized and perfused with 10 mL of ice-cold PBS. […] Samples were centrifuged, supernatant collected, and protein quantified via Bradford assay. […]
Background: A western blot detects proteins with antibodies after separation by electrophoresis.

The test system of data set [2] is wild-type mice, SAH model. Briefly: Sodium fluorescein extravasation assay (blood-brain barrier permeability) after SAH. Conditions: 24 hours post-SAH, adropin 450 nmol/kg i.p. The protocol: as §1
as §2, with “bone. The skin was reflected and a burr hole was drilled 5.0 mm rostral of bregma and 0.5 mm right laterally to avoid puncturing dural venous sinuses.” for “bone.”

Data set [3] relates to eNOS. In words: Western blot of total eNOS and p-eNOS (Ser1179) in brain after SAH. The protocol:
as §1
SAH was modeled using the anterior circulation single autologous blood injection method^25,33 with minor adjustments. Mice were anesthetized with ketamine (100 mg/kg) and xylazine (10 mg/kg) before removing hair from scalp and cleaning with serial betadine—saline washes. The tail was also prepped from the base extending 1 cm distally. Mice were then fixed into a stereotaxic frame and body temperature maintained at 37° C. The scalp was incised along the sagittal suture from bregma to the nasal bone. The skin was reflected and a burr hole was drilled 5.0 mm rostral of bregma and 0.5 mm right laterally to avoid puncturing dural venous sinuses. […] 50 μL of blood was drawn into a Hamilton syringe (Hamilton, Reno, Nevada) and passed through the cranial burr hole at an angle of 30° caudally until contact with the skull base (approximately 7.2 mm). The syringe was left in place for 30 seconds to allow for tissue accommodation before blood was manually injected at a rate of 10 μL/minute. After blood injection was complete, the syringe was left in place for an additional 3 minutes and then retracted slowly at a rate of 10 mm/minute. Sham surgery was the identical procedure and timing including placement of the stereotactic needle but without blood injection. After the needle and syringe were removed, the burr hole was covered and skin flap was sutured with 5-0 ethilon suture.
At 24 hours or 7 days post-SAH, mice were deeply anesthetized and perfused with 10 mL of ice-cold PBS. Brains were harvested from the skull and placed into a cold brain matrix (Harvard Apparatus, Holliston, Massachusetts). The olfactory lobe was removed, and brains were cut in half along the mid-sagittal plane. The right hemisphere was cut again 2 mm caudally from the rostral edge and the pieces of tissue were snap frozen in liquid N2. Once all tissue samples were collected, brains were homogenized with a Dounce homogenizer and incubated in radioimmunoprecipitation assay (RIPA) buffer at 4° C. for 90 minutes with constant agitation. Samples were centrifuged, supernatant collected, and protein quantified via Bradford assay. Samples were then frozen at −20° C. or used immediately. 30 μg of total protein was separated electrophoretically through a 4-15% tris-glycine gel at 90V for 60 minutes and transferred onto nitrocellulose membranes with 0.45 μm pore size. Membranes were blocked with 5% skim milk in TBST (5% BSA for phospho-eNOS blots) for 1 hours at room temperature and then probed with specified primary antibodies (Table 1) diluted in 5% skim milk (5% BSA for phospho-eNOS) overnight at 4° C. with constant agitation. […]

In data set [4] the test system is wild-type mice, SAH model. In words: Brain water content (cerebral edema) after SAH. Conditions: 24 hours post-SAH, adropin 450 nmol/kg i.p. The procedure:
as §1
SAH was modeled using the anterior circulation single autologous blood injection method^25,33 with minor adjustments. Mice were anesthetized with ketamine (100 mg/kg) and xylazine (10 mg/kg) before removing hair from scalp and cleaning with serial betadine—saline washes. The tail was also prepped from the base extending 1 cm distally. Mice were then fixed into a stereotaxic frame and body temperature maintained at 37° C. […]
Brain water content was measured using the wet weight—dry weight method.^34 Twenty-four hours post-SAH, brains were removed from the skull and the olfactory lobe and hindbrain were removed from the cortex and midbrain. […]

Data set [5] relates to wild-type mice, SAH model. Briefly: TUNEL/NeuN staining for neuronal apoptosis after SAH. Conditions: seven days post-SAH. The procedure:
as §1
SAH was modeled using the anterior circulation single autologous blood injection method^25,33 with minor adjustments. […]
Following perfusion-fixation and overnight post-fixation in 4% PFA, brain samples were embedded in paraffin wax and cut into […] sections with a Leica RM2125 RTS microtome (Leica Microsystems, Buffalo Grove, New York) and adhered to poly-L-lysine-coated glass slides. […] Primary antibodies were detected using donkey anti-rabbit IgG AlexaFluor594, donkey anti-rabbit IgG AlexaFluor488, donkey anti-rat IgG AlexaFluor594, or donkey anti-goat IgG AlexaFluor488 (all from ThermoFisher, Waltham, Massachusetts). […] All images were analyzed by two blinded observers.

Data set [6] in a line: Mean arterial pressure in the aneurysm rupture model. The following applies: before and after aneurysm induction, adropin vs vehicle. The protocol: as §1
Cerebral aneurysms were induced as previously described. Briefly, mice were anesthetized with ketamine (100 mg/kg) and xylazine (10 mg/kg) before the left common carotid artery and the right renal artery were ligated with 7-0 silk suture (Ethicon Inc., Somerville, New Jersey). Carotid and renal artery ligations are hereafter referred to as ligations. […]

On to “adropin (CHSRSADVDSLSESSPNSSPGPCPEKAPPPQKPSHEGSYLLQP) [Synthetic adropin^34-76 peptide from Bachem]”, for which, in data set [1], the “ZO-1 expression (immunoblot)” value was “preserved the expression of occludin and ZO-1”. Also, the “barrier permeability, average area of positive fluorescein signal” value in data set [2] is “adropin treatment reduced this effect”. Further, in data set [3] (7 day post-SAH), the phospho-eNOS levels result is on record as “adropin treatment increase phospho-eNOS levels” and the “total eNOS” value was “slightly increased in both SAH groups; however, neither reached statistical significance”. Besides, in data set [3] (7 day post-SAH, p=0.08 vs SAH+vehicle, p=0.08 vs sham+vehicle), the Phospho-eNOS/eNOS ratio entry is listed as “trended higher with adropin treatment”. Moreover, the “p-eNOS/total eNOS ratio” value in data set [3] (one day post-SAH) is “no change in p-eNOS/total eNOS ratios between any groups”. For the same substance, the “eNOS phosphorylation (Ser1179)” value in data set [3] (one day post-SAH, vs SAH+vehicle) is “increased eNOS phosphorylation one day post-SAH”. Also, the “brain water content (cerebral edema)” value in data set [4] was “this effect was blunted by adropin treatment”. Besides, the “NeuN+/TUNEL+ cells (neuronal apoptosis)” value in data set [5] is given as “did not have as many TUNEL^+ neurons”. The “systemic blood pressure / mean arterial pressure (MAP)” value in data set [6] is given as “No difference was found in blood pressure; also recorded: no effect on MAP before or after aneurysm induction”.
